According to US10457691B2, “Macrocyclic kinase inhibitors and uses thereof” (Dana-Farber Cancer Institute, Inc., priority 2014, dated 2019):

Legend:
Type in all cases: biochemical
Conditions in all cases: read-out: Activity of the protein kinase when treated with compound I-1 (% control)
DYRK1A = DYRK1A (Homo sapiens, UniProt Q13627); assay: Protein kinase assay ([γ-32P] ATP), DYRK1A
Experimental: (§1) In another set of experiments, the activities of the compounds described herein against various protein kinases were determined according to the methods reported in Hastie et al., Nature Protocols, 2006, 1, 968-971.
(§2) Enzyme dilution buffer. This buffer consisted of 50 mM Tris-HCl, pH 7.5, 0.1 mM EGTA, 1 mg ml^−1 bovine serum albumin and 0.1% (vol/vol) 2-mercaptoethanol.
(§3) 10× concentrated assay buffer. An assay buffer of 500 mM Tris-HCl, pH 7.5, 1 mM EGTA, and 100 mM magnesium acetate was used for assay of a wide variety of protein kinases. In some experiments, other cofactors were included (e.g., calcium ions and calmodulin were included for assay of calcium-calmodulindependent protein kinases).
(§4) 1 mM [γ-^32P] ATP. The specific activity of the [γ-^32P] ATP solution was 1×10^5 to 1×10^6 c.p.m. per nmol depending on what was needed to produce an optimal signal/noise ratio. […] To measure the concentration of ATP, a sample of such a stock solution was diluted to 20 μM, and the absorbance of the diluted sample was measured at 259 nm. The absorbance of a 20-μM stock solution of ATP at 259 nm was about 0.31. […] ATP to produce a radioactivity of 1×10^5 to 1×10^6 c.p.m. per nmol. […]
(§5) 13) Measure radioactivity in the samples by Cerenkov counting (e.g., without liquid scintillation fluid) in a liquid scintillation counter using a “^32P program”. […]

MAPKAP-K3 = MAPKAP-K3 (Homo sapiens, UniProt Q16644); assay: Protein kinase assay ([γ-32P] ATP), MAPKAP-K3
Experimental: as §1, §2, §3, §4, §5

JNK1 = JNK1 (Homo sapiens, UniProt P45983); assay: Protein kinase assay ([γ-32P] ATP), JNK1
Experimental: as §1, §2, §3, §4, §5

CK1δ = CK1δ (Homo sapiens, UniProt P48730); assay: Protein kinase assay ([γ-32P] ATP), CK1δ
Sequence of CK1δ (P48730 whole entry): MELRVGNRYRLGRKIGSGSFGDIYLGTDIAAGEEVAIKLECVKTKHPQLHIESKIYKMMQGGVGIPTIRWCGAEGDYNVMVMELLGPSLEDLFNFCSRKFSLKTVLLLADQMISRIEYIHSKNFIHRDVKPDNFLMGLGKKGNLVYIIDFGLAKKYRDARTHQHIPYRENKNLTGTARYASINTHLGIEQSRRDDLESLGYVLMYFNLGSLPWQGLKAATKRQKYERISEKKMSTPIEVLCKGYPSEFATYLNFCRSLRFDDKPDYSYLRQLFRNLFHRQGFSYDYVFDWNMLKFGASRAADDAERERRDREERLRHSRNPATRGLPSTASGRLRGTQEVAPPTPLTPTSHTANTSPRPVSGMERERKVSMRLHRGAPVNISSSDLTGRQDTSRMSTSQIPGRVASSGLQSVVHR
Experimental: as §1, §2, §3, §4, §5

HIPK1 = HIPK1 (Homo sapiens, UniProt Q86Z02); assay: Protein kinase assay ([γ-32P] ATP), HIPK1
Experimental: as §1, §2, §3, §4, §5

Lck = Lck (Homo sapiens, UniProt P06239); assay: Protein kinase assay ([γ-32P] ATP), Lck
Experimental: as §1, §2, §3, §4, §5

DAPK1 = DAPK1 (Homo sapiens, UniProt P53355); assay: Protein kinase assay ([γ-32P] ATP), DAPK1
Sequence of DAPK1 (P53355 whole entry): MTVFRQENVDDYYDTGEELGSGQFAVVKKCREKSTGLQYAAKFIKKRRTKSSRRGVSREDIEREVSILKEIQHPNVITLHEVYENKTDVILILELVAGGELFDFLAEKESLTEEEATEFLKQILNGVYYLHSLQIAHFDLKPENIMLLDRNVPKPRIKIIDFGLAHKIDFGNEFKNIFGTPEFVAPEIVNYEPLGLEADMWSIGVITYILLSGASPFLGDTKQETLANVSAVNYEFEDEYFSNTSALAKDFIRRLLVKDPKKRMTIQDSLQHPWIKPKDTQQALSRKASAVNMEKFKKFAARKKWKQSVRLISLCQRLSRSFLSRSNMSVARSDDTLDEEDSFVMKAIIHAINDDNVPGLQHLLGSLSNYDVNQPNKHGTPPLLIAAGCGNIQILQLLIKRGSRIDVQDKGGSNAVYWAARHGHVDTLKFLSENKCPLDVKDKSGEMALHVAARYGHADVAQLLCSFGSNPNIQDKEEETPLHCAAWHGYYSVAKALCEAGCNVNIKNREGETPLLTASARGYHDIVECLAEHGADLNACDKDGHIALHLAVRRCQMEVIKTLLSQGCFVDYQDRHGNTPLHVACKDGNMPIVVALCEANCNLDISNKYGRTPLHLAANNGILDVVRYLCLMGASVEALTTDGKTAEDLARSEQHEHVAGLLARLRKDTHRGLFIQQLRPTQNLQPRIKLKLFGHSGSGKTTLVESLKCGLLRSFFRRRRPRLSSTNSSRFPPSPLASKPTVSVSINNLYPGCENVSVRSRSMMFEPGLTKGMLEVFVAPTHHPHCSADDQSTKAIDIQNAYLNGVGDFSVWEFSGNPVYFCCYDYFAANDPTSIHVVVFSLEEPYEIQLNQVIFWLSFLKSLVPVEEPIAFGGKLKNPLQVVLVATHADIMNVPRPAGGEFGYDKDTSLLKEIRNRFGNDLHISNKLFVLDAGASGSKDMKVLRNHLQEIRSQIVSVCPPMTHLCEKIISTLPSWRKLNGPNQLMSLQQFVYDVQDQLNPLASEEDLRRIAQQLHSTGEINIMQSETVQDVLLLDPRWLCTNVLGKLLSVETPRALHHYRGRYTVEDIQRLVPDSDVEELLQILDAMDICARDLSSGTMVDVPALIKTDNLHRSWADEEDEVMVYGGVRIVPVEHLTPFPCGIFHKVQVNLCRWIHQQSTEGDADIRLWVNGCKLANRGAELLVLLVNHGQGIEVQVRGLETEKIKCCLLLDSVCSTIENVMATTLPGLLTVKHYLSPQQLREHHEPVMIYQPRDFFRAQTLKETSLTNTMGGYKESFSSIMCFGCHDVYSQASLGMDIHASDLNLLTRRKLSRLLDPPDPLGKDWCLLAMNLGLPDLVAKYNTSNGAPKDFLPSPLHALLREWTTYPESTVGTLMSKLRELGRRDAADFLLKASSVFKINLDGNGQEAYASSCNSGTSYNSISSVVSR
Experimental: as §1, §2, §3, §4, §5

EPH-A2 = EPH-A2 (Homo sapiens, UniProt P29317); assay: Protein kinase assay ([γ-32P] ATP), EPH-A2
Experimental: as §1, §2, §3, §4, §5

EPH-B2 = EPH-B2 (Homo sapiens, UniProt P29323); assay: Protein kinase assay ([γ-32P] ATP), EPH-B2
Sequence of EPH-B2 (P29323 19-1055): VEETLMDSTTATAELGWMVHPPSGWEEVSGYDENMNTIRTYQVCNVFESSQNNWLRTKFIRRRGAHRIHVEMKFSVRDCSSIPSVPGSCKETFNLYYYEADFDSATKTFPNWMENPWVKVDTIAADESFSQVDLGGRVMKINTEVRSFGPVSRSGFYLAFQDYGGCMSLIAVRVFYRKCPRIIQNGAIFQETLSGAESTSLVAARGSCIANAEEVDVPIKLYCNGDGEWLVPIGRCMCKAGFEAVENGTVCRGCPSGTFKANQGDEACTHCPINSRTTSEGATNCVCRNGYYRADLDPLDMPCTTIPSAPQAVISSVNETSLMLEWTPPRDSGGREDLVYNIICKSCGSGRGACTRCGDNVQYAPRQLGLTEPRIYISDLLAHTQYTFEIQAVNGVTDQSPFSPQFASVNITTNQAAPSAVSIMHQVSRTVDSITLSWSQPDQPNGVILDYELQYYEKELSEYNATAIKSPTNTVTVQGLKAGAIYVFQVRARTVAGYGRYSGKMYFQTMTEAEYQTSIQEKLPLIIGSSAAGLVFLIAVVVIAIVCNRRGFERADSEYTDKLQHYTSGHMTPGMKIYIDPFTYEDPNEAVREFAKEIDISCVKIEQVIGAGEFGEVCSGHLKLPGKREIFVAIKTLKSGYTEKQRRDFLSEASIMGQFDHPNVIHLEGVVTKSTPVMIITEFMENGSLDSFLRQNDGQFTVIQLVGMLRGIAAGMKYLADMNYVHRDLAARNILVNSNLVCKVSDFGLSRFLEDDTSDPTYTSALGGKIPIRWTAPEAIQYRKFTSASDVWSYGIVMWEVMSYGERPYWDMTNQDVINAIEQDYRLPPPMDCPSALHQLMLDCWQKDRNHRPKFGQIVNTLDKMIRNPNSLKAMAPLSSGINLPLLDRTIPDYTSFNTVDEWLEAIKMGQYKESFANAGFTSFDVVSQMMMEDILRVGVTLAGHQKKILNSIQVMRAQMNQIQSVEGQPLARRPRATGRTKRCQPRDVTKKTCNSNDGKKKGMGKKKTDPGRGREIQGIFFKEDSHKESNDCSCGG
Experimental: as §1, §2, §3, §4, §5

BRSK2 = BRSK2 (Homo sapiens, UniProt Q8IWQ3); assay: Protein kinase assay ([γ-32P] ATP), BRSK2
Sequence of BRSK2 (Q8IWQ3 whole entry): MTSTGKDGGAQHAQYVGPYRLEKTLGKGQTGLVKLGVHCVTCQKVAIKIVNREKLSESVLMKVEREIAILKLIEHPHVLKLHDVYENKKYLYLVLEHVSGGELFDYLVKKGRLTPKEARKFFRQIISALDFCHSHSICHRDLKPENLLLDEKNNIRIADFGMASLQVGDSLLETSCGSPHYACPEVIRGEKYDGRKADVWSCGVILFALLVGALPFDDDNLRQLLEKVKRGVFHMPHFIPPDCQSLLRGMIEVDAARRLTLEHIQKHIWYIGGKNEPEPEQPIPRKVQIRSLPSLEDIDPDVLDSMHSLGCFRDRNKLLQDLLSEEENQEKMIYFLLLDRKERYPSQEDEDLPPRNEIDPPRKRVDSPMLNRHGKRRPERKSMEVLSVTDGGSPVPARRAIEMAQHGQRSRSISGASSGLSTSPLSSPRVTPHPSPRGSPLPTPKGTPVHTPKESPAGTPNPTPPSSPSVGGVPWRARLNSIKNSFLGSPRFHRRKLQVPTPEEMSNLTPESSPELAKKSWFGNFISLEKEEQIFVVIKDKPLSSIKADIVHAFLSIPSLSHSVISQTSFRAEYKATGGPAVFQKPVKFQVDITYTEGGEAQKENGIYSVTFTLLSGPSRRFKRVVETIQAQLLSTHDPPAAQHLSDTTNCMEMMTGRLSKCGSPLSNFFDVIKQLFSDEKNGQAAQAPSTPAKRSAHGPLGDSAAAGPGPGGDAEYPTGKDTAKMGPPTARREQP
Experimental: as §1, §2, §3, §4, §5

Src = Src (Homo sapiens, UniProt P12931); assay: Protein kinase assay ([γ-32P] ATP), Src
Experimental: as §1, §2, §3, §4, §5

PAK4 = PAK4 (Homo sapiens, UniProt O96013); assay: Protein kinase assay ([γ-32P] ATP), PAK4
Sequence of PAK4 (O96013 whole entry): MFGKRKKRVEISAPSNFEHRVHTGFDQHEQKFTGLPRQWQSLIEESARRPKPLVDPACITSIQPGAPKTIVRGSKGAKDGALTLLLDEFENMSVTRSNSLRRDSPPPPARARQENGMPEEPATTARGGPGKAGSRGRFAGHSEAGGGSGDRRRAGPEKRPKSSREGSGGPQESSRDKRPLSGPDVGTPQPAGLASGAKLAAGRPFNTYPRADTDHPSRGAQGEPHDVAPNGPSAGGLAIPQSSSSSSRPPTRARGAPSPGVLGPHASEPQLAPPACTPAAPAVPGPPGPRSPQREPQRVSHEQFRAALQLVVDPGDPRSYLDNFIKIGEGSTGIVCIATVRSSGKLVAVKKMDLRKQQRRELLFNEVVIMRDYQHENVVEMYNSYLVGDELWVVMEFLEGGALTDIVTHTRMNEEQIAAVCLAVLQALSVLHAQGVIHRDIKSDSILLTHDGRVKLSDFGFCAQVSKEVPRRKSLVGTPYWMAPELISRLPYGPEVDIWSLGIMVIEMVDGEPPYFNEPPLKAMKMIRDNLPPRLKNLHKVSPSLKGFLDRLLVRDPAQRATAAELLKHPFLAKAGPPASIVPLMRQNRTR
Experimental: as §1, §2, §3, §4, §5

SYK = SYK (Homo sapiens, UniProt P43405); assay: Protein kinase assay ([γ-32P] ATP), SYK
Experimental: as §1, §2, §3, §4, §5

p38d MAPK = p38d MAPK (Homo sapiens, UniProt O15264); assay: Protein kinase assay ([γ-32P] ATP), p38d MAPK
Experimental: as §1, §2, §3, §4, §5

TrkA = TrkA (Homo sapiens, UniProt P04629); assay: Protein kinase assay ([γ-32P] ATP), TrkA
Experimental: as §1, §2, §3, §4, §5

PAK5 = PAK5 (Homo sapiens, UniProt Q9P286); assay: Protein kinase assay ([γ-32P] ATP), PAK5
Experimental: as §1, §2, §3, §4, §5

PAK2 = PAK2 (Homo sapiens, UniProt Q13177); assay: Protein kinase assay ([γ-32P] ATP), PAK2
Sequence of PAK2 (Q13177 whole entry): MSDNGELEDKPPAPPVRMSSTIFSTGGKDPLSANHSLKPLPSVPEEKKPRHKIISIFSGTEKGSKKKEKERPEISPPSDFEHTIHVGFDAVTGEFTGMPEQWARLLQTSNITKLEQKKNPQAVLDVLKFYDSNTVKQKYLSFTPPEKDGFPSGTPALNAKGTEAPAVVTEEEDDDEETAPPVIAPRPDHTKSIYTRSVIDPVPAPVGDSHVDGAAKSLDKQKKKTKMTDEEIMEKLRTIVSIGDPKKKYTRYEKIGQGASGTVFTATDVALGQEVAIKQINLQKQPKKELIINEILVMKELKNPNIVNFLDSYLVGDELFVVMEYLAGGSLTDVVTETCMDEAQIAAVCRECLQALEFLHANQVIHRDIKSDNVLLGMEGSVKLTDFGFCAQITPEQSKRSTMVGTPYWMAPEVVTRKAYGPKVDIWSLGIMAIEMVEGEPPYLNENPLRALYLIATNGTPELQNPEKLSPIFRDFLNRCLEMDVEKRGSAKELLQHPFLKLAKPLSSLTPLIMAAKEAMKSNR
Experimental: as §1, §2, §3, §4, §5

[1] = 0.1 μM of compound I-1, DMSO control = 100%
[2] = 1 μM of compound I-1, DMSO control = 100%

With Cc1cccc(C)c1NC(=O)N1C/C=C\COc2cccc(c2)Nc2cc1ncn2 [Compound I-1] the remaining activity at 0.1 µM (DYRK1A; [1]) was 104%, the remaining activity at 1 µM (DYRK1A; [2]) was 86% and the remaining activity at 0.1 µM (MAPKAP-K3; [1]) was 108%. The remaining activity at 1 µM (MAPKAP-K3; [2]) was 89%, the remaining activity at 0.1 µM (JNK1; [1]) was 93% and the remaining activity at 1 µM (JNK1; [2]) was 72%. It also gave a remaining activity at 0.1 µM (CK1δ; [1]) of 97%, a remaining activity at 1 µM (CK1δ; [2]) of 99% and a remaining activity at 0.1 µM (HIPK1; [1]) of 99%. For the same compound, the remaining activity at 1 µM (HIPK1; [2]) was 82%, the remaining activity at 0.1 µM (Lck; [1]) was 4% and the remaining activity at 1 µM (Lck; [2]) was 3%. For the same compound, the remaining activity at 0.1 µM (DAPK1; [1]) was 99%, the remaining activity at 1 µM (DAPK1; [2]) was 85% and the remaining activity at 0.1 µM (EPH-A2; [1]) was 11%. The remaining activity at 1 µM (EPH-A2; [2]) was 5%, the remaining activity at 0.1 µM (EPH-B2; [1]) was 54% and the remaining activity at 1 µM (EPH-B2; [2]) was 1%. For the same compound, the remaining activity at 0.1 µM (BRSK2; [1]) was 110%, the remaining activity at 1 µM (BRSK2; [2]) was 78% and the remaining activity at 0.1 µM (Src; [1]) was 25%. It also gave a remaining activity at 1 µM (Src; [2]) of 24%, a remaining activity at 0.1 µM (PAK4; [1]) of 100% and a remaining activity at 1 µM (PAK4; [2]) of 78%. The remaining activity at 0.1 µM (SYK; [1]) was 100%, the remaining activity at 1 µM (SYK; [2]) was 91% and the remaining activity at 0.1 µM (p38d MAPK; [1]) was 110%. For the same compound, the remaining activity at 1 µM (p38d MAPK; [2]) was 73%, the remaining activity at 0.1 µM (TrkA; [1]) was 54% and the remaining activity at 1 µM (TrkA; [2]) was 76%. The remaining activity at 0.1 µM (PAK5; [1]) was 90%, the remaining activity at 1 µM (PAK5; [2]) was 64% and the remaining activity at 0.1 µM (PAK2; [1]) was 100%. For the same compound, the remaining activity at 1 µM (PAK2; [2]) was 77%.
